Tests used:
[1] = Removal of smear layer from coronal cavity preparations (SEM); details: third molars, Class I preparations; solution left 5 minutes
Procedure: Sound third molars were collected and stored in deionized water. Class I preparations were made following conventionally accepted procedures in the occlusal surfaces of the teeth. The teeth were randomly divided into two groups. […] After this treatment each preparation was rinsed with copious amounts of water to eliminate the residual effect of sodium hypochlorite. Group 2: ADD solution was left in the cavity for 5 minutes. After this treatment each preparation was rinsed with copious amounts of distilled water to eliminate the residual effect of ADD. After irrigation, the crowns were split in half using a diamond saw and constant water spray. Half of each sample was placed into a gluteraldehyde solution for 24 h. The fixed specimens were then rinsed twice by a sodium buffered solution (pH 7.2), treated with osmium tetraoxide for one hour, rinsed with ascending concentrations of ethyl alcohol 30%-100%, and then placed in a dessicator for 24 h. […] The presence or absence of smear layer on the walls of each cavity was evaluated. The erosion of dentinal tubules was also assessed.

[2] = Removal of smear layer from root surfaces of teeth (SEM); details: saturated cotton pellet left 5 minutes
Procedure: The coronal one-third root surfaces of these teeth were curetted following conventionally accepted procedures. The samples were randomly divided into two groups.
After this treatment each root surface was rinsed with copious amounts of distilled water to eliminate the residual effect of sodium hypochlorite.
Group 2: A cotton pellet saturated with ADD solution was left on the root surface preparations for 5 minutes. After this treatment each preparation was rinsed with copious amounts of distilled water to eliminate the residual effect of ADD.
After irrigation, the entire tooth was split in half using a diamond saw and constant water spray. Half of each sample was placed into a gluteraldehyde solution for 24 h. The fixed specimens were then rinsed twice by a sodium buffered solution (pH 7.2), treated with osmium tetraoxide for one hour, rinsed with ascending concentrations of ethyl alcohol 30%-100%, and then placed in a dessicator for 24 h. Finally, each specimen was mounted on a special button, and coated with 25 μm of gold-palladium (Au—Pd) (Wakabayashi et al., 1995). The presence or absence of smear layer on the root surfaces was evaluated. The erosion of dentinal tubules was also assessed.

[3] = test system: root canals infected with whole saliva; test: Disinfection of human root canals infected with whole saliva
Description: It will be apparent to those of skill in the art that a solution such as the one described herein (i.e., one that has improved biocompatibility and is effective in a shorter period of time than previously known treatments) is highly desirable, particularly in the health care fields. Studies have also shown that, unlike other previously known dental irrigants, the solution of the present invention maintains the desired antimicrobial effect at dilutions up to 1:200. […] In a further study undertaken to evaluate the antimicrobial properties of the presently described solution, human root canals were infected with whole saliva and then treated with either 5.25% NaOCl or a solution of doxycycline, polysorbate 80, and citric acid. While the NaOCl effectively disinfected only 37 out of 60 teeth, the solution of the present invention disinfected 59 out of 60 teeth. The importance and desirability of such improved antimicrobial properties can be easily appreciated, particularly by those of skill in the art.

[4] = Removal of smear layer from prepared crown preparations (SEM); details: saturated cotton pellet left 5 minutes
Procedure: Sound third molars were collected and stored in deionized water. Crown preparations were made following conventionally accepted procedures. The samples were randomly divided into two groups.
After this treatment each preparation was rinsed with copious amounts of distilled water to eliminate the residual effect of sodium hypochlorite.
Group 2: A cotton pellet saturated with ADD solution was left on the crown preparations for 5 minutes. After this treatment each preparation was rinsed with copious amounts of distilled water to eliminate residual ADD.
After irrigation, the crown preparations were split in half using a diamond saw and constant water spray. Half of each sample was placed into a gluteraldehyde solution for 24 h. The fixed specimens were then rinsed twice by a sodium buffered solution (pH 7.2), treated with osmium tetraoxide for one hour, rinsed with ascending concentrations of ethyl alcohol 30%-100%, and then placed in a dessicator for 24 h. Finally, each specimen was mounted on a special button, and coated with 25 μm of gold-palladium (Au—Pd) (Wakabayashi et al., 1995). The presence or absence of smear layer on the walls of each cavity was evaluated. The erosion of dentinal tubules was also assessed.

Enterococcus faecalis [5] = test: Zone of inhibition on inoculated TSA plates; format: cell-based; details: E. faecalis; for bactericidal effect upon dilution (zone of inhibition): diluted five- or ten-fold
Procedure: In the first test, the zone of inhibition was measured on plates inoculated with Enterococcus faecalis. An overnight culture of E. faecalis (ATCC 4082) was standardized to 0.11 optical density (O.D.) measured at 570 nm. One hundred microliters of the microorganism was spread onto a trypticase soy agar (TSA) plate with the use of a sterile L-shaped glass rod. One-quarter inch sterile S & S filter paper (Schleicher & Schuell) was placed in each of the four quadrants of the TSA plate. […] Eight replicates were prepared for each of the sample solutions. The plates were incubated overnight at 37° C. for 24 hours and the zones of inhibition were measured in millimeters.

[6] = Removal of smear layer from root end cavity preparations (SEM); parameters: species or system human; details: solution left in cavity five minutes
Procedure: Extracted, human single-rooted teeth were used in this part of the experiment.
The working length of each canal was determined by placing and moving a #15 K file apically in the canal until it exited from the apical foramen.
The access cavities were closed with Cavit. The roots were then wrapped in moist gauze and stored in a closed glass bottle at room temperature and 100% humidity for one week.
Two coats of nail polish were applied to the external surface of each root.
Apical cavity preparations were made in each of the roots. A #1 round bur in a high-speed handpiece with water coolant was used to create a small opening into the gutta-percha filling material.
The roots were then randomly divided into two groups. […] The solution was left in the cavity for five minutes and then rinsed with 10 ml of distilled water. In Group 2, the preparations were rinsed with 5 ml of ADD. This solution was also left in the root end cavities for five minutes and then rinsed with 5 ml of distilled water. After drying with paper points, the roots were split in halves using a slow speed diamond saw (Labut Agar Scientific, Cambridge, England).
Half of each sample was placed into a gluteraldehyde solution for 24 h. […] The presence or absence of smear layer on the root end cavity preparations was evaluated. The erosion of dentinal tubules was also assessed.

[7] = Removal of smear layer from root canal walls (SEM); details: extracted human teeth; 5 min contact; ADD group instrumented with 1% sodium hypochlorite as irrigant
Description: Extracted maxillary and mandibular human teeth were used for this study. The working lengths of these teeth were between 21-25 millimeters. The teeth were scaled of any calculus and other surface debris (soft tissue and/or alveolar bone) using hand scalers. After preparing conventional access preparations through the incisal or occlusal surfaces of the test teeth, a K-type file (size 10) was used to determine the working length of each tooth by penetrating the apical foramen and pulling back to the clinical apical foramen. […] The apex of each tooth was enlarged to size 30 files.
After complete cleaning and shaping, the canals were irrigated with 1 ml of NaOCl and a barbed broach wrapped with cotton was taken to the canal terminus and left for five minutes to ensure uniform direct contact of the irrigant with the entire canal. Upon removal of the barbed broach, the canal was irrigated with 4 ml of NaOCl and rinsed with 10 ml of distilled water. Group 2: NSET was performed using 1% sodium hypochlorite as root canal irrigant. […] Upon removal of the barbed broach, the canal was irrigated with 4 ml of ADD and rinsed with 10 ml of distilled water. […] The presence or absence of smear layer at the coronal, middle, and apical portion of each canal was evaluated. The erosion of dentinal tubules was also assessed at different levels of each canal.

Enterococcus faecalis [8] = test: Minimum inhibitory concentration (serial dilution, turbidity); format: cell-based
Procedure: In the second test, the minimum inhibitory concentration (MIC) was measured. E. faecalis was cultured overnight and the concentration was adjusted to 0.11 O.D. at 570 nm. The test solutions were serially diluted from 1:2 up to 1:2048 dilutions. One ml of 2× trypticase soy broth (TSB) and the same amount of a test solution were mixed in various tubes. One hundred microliters of the standardized E. faecalis was added into each of the test tubes and were incubated overnight at 37° C. The presence or absence of turbidity was determined the following day.

Compound	presence or absence of smear layer on cavity walls [1]	presence or absence of smear layer on root surfaces [2]	teeth disinfected [3]	presence or absence of smear layer on crown preparations [4]	bactericidal effect upon dilution (zone of inhibition) (Enterococcus faecalis [5])	zone of inhibition, undiluted versus diluted (Enterococcus faecalis [5]; undiluted, 1:5, 1:10)	presence or absence of smear layer on root end cavity preparations [6]	presence or absence of smear layer on root canal walls [7]	dilution up to which solution is effective (minimum inhibitory concentration test) (Enterococcus faecalis [8]; E. faecalis, overnight at 37° C., turbidity)	dilution limit of antimicrobial / bactericidal effect (Enterococcus faecalis [8]; summary statement in description)
[Na+].[O-]Cl [5.25% NaOCl, sodium hypochlorite]	presence of smear layer on the walls of all teeth	presence of smear layer on the surface of all roots	37 out of 60	presence of smear layer on the surface of all crowns	some bactericidal effect	more effective when undiluted than at 1:5 or 1:10 dilution	presence of smear layer on the surface of all cavity preparations	presence of smear layer on the entire root canal walls of all teeth	–	–
O=C(O)CN(CCN(CC(=O)O)CC(=O)O)CC(=O)O [EDTA, ethylenediamine tetraacetic acid]	–	–	–	–	no bactericidal properties	–	–	–	no antibacterial effects at any dilution level	ineffective in anything other than an undiluted state

From patent US8075874B2, “Methods for disinfecting and removing smear layer from tooth surfaces” (Dentsply International, Inc., priority 2002, dated 2011)
